Assay results reported in ChEMBL document CHEMBL1201862, “PubChem BioAssay data set” (2004).
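Protocol summary: plate cells (96-well), add compound at 5 concentrations, incubate 48 h, interpolate endpoints linearly. The concentration for 50% growth inhibition is given as GI50.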 The source made the active and inactive calls. No stated cut-off is given here; in the data, active = GI50 up to about 1.1 µM and inactive = higher.

How the values were obtained:
Assay in all cases: growth of human tumour cells (NCI), 48 h
SNB-78 = system: SNB-78
HT-29 = system: HT-29
NCI-H522 = system: NCI-H522
SF-295 = system: SF-295
HOP-18 = system: HOP-18
SF-268 = system: SF-268
IGROV-1 = system: IGROV-1
LOX IMVI = system: LOX IMVI
RPMI-8226 = system: RPMI-8226
KM-20L2 = system: KM-20L2
NCI-H226 = system: NCI-H226
786-0 = system: 786-0
HCC 2998 = system: HCC 2998
SNB-75 = system: SNB-75
MDA-MB-231 = system: MDA-MB-231
DU-145 = system: DU-145
MDA-N = system: MDA-N
Hs-578T = system: Hs-578T
T47D = system: T47D
PC-3 = system: PC-3

| SMILES | GI50 (SNB-78) | GI50 (HT-29) | GI50 (NCI-H522) | GI50 (SF-295) | GI50 (HOP-18) | GI50 (SF-268) | GI50 (IGROV-1) | GI50 (LOX IMVI) | GI50 (RPMI-8226) | GI50 (KM-20L2) | GI50 (NCI-H226) | GI50 (786-0) | GI50 (HCC 2998) | GI50 (SNB-75) | GI50 (MDA-MB-231) | GI50 (DU-145) | GI50 (MDA-N) | GI50 (Hs-578T) | GI50 (T47D) | GI50 (PC-3) |
| --- | --- | --- | --- | --- | --- | --- | --- | --- | --- | --- | --- | --- | --- | --- | --- | --- | --- | --- | --- | --- |
| CCC1C(=O)OCc2c1cc1n(c2=O)C(CC)c2c-1nc1ccccc1c2Cl (centres undefined) | 25.6 µM (inactive) | 24.1 µM (inactive) | 15 µM (inactive) | 23.4 µM (inactive) | 20.3 µM (inactive) | 23.9 µM (inactive) | 19.9 µM (inactive) | 33.1 µM (inactive) | 13.2 µM (inactive) | 31.3 µM (inactive) | 29.1 µM (inactive) | 15.7 µM (inactive) | – | – | – | – | – | – | – | – |
| CCOC(=O)NC1CC2CCC1(OC)C=C2C (centres undefined) | > 100 µM (inactive) | > 100 µM (inactive) | > 100 µM (inactive) | > 100 µM (inactive) | > 100 µM (inactive) | > 100 µM (inactive) | > 100 µM (inactive) | > 100 µM (inactive) | > 100 µM (inactive) | > 100 µM (inactive) | > 100 µM (inactive) | > 100 µM (inactive) | > 100 µM (inactive) | > 100 µM (inactive) | – | – | – | – | – | – |
| C[N+](C)(C)C.FC(F)(F)C1(C(F)(F)F)O[SiH-]2(OC(C(F)(F)F)(C(F)(F)F)c3ccccc32)c2ccccc21 | 13.2 µM (inactive) | 11.2 µM (inactive) | 22.1 µM (inactive) | 4.81 µM (inactive) | 36.9 µM (inactive) | – | – | – | 16.4 µM (inactive) | 5.24 µM (inactive) | 4.86 µM (inactive) | 16.7 µM (inactive) | 19.2 µM (inactive) | – | – | – | – | – | – | – |
| CCNC(C)Cc1ccccc1 (centres undefined) | > 100 µM (inactive) | > 100 µM (inactive) | > 100 µM (inactive) | > 100 µM (inactive) | > 100 µM (inactive) | > 100 µM (inactive) | > 100 µM (inactive) | > 100 µM (inactive) | > 100 µM (inactive) | > 100 µM (inactive) | > 100 µM (inactive) | > 100 µM (inactive) | > 100 µM (inactive) | 6.71 µM (inactive) | – | – | – | – | – | – |
| COc1cc([C@@H]2c3cc4c(cc3[C@@H](NC(=O)c3ccc(C(C)=O)cc3)C3COC(=O)[C@@H]32)OCO4)cc(OC)c1O (some centres undefined) | 8.99 µM (inactive) | 1.5 µM (inactive) | 1.1 µM (active) | 0.6 µM (active) | > 100 µM (inactive) | 1.09 µM (active) | 1.03 µM (active) | 0.289 µM (active) | 0.877 µM (active) | 0.724 µM (active) | 0.159 µM (active) | 0.327 µM (active) | 1.41 µM (inactive) | 1.24 µM (inactive) | – | – | – | – | – | – |
| COc1ccc(OC(C(=O)O)C(C)C)c2c1CCCC2=O (centres undefined) | > 100 µM (inactive) | > 100 µM (inactive) | > 100 µM (inactive) | > 100 µM (inactive) | > 100 µM (inactive) | > 100 µM (inactive) | > 100 µM (inactive) | > 100 µM (inactive) | > 100 µM (inactive) | > 100 µM (inactive) | – | > 100 µM (inactive) | > 100 µM (inactive) | – | – | – | – | – | – | – |
| CC(=O)OC12c3ccccc3C1CCCC21OCCCO1 (centres undefined) | > 100 µM (inactive) | > 100 µM (inactive) | > 100 µM (inactive) | > 100 µM (inactive) | > 100 µM (inactive) | > 100 µM (inactive) | > 100 µM (inactive) | > 100 µM (inactive) | > 100 µM (inactive) | > 100 µM (inactive) | > 100 µM (inactive) | > 100 µM (inactive) | > 100 µM (inactive) | 37.5 µM (inactive) | – | – | – | – | – | – |
| CC1=CC(C)(C)N=C2SC(c3ccc(N)cc3)=NN12 | > 100 µM (inactive) | 32.1 µM (inactive) | 58.6 µM (inactive) | > 91.8 µM (inactive) | 1.47 µM (inactive) | > 67.6 µM (inactive) | > 100 µM (inactive) | > 58.5 µM (inactive) | 21.1 µM (inactive) | 46.6 µM (inactive) | > 94.6 µM (inactive) | 57.1 µM (inactive) | > 100 µM (inactive) | > 52.5 µM (inactive) | – | – | – | – | – | – |
| CN(C)CCNc1c2ccccc2c2c3c(cccc13)C(=O)N(CCN(C)C)C2=O | 0.151 µM (active) | 0.029 µM (active) | 0.123 µM (active) | 0.069 µM (active) | 0.188 µM (active) | 0.22 µM (active) | 0.0968 µM (active) | 0.071 µM (active) | 0.288 µM (active) | 0.103 µM (active) | 1.82 µM (inactive) | – | 0.152 µM (active) | 0.176 µM (active) | – | – | – | – | – | – |
| CC1NC(=O)CC(c2ccccc2)N(N=O)C1c1ccccc1 (centres undefined) | 35.4 µM (inactive) | 29.7 µM (inactive) | 22.1 µM (inactive) | 30.7 µM (inactive) | 52.2 µM (inactive) | 31.8 µM (inactive) | 42.1 µM (inactive) | 37.9 µM (inactive) | 26.5 µM (inactive) | 21.4 µM (inactive) | 58.5 µM (inactive) | – | 35.4 µM (inactive) | 25.4 µM (inactive) | – | – | – | – | – | – |
| CN(/N=C/c1cccc2cccnc12)c1ccccc1 | > 100 µM (inactive) | 44.2 µM (inactive) | > 100 µM (inactive) | 99.3 µM (inactive) | > 100 µM (inactive) | > 100 µM (inactive) | 73.6 µM (inactive) | > 100 µM (inactive) | > 100 µM (inactive) | > 100 µM (inactive) | > 100 µM (inactive) | 55.3 µM (inactive) | 86.1 µM (inactive) | 20.4 µM (inactive) | – | – | – | – | – | – |
| CC1=NOC(=O)C1/N=N/c1ccc(Br)c(C)c1 (centres undefined) | 26.4 µM (inactive) | 36.2 µM (inactive) | – | 23 µM (inactive) | 3.31 µM (inactive) | 22.1 µM (inactive) | 19.2 µM (inactive) | – | 15.9 µM (inactive) | 33.7 µM (inactive) | 25.5 µM (inactive) | 20 µM (inactive) | 24.8 µM (inactive) | 30.5 µM (inactive) | – | – | – | – | – | – |
| Cc1ccc(S(=O)(=O)NCC2CCCCC2=O)cc1 (centres undefined) | > 100 µM (inactive) | 10.2 µM (inactive) | 56.8 µM (inactive) | > 100 µM (inactive) | > 100 µM (inactive) | 70 µM (inactive) | > 100 µM (inactive) | > 100 µM (inactive) | 40.8 µM (inactive) | > 100 µM (inactive) | > 100 µM (inactive) | > 100 µM (inactive) | – | 22.9 µM (inactive) | – | – | – | – | – | – |
| Cc1noc(/N=C2\C=C(Nc3onc(C)c3C)C(=O)c3ccccc32)c1C | > 100 µM (inactive) | > 100 µM (inactive) | – | > 100 µM (inactive) | 85.9 µM (inactive) | 86.3 µM (inactive) | > 100 µM (inactive) | 11 µM (inactive) | 25.1 µM (inactive) | > 100 µM (inactive) | > 100 µM (inactive) | > 100 µM (inactive) | > 100 µM (inactive) | 69.3 µM (inactive) | – | – | – | – | – | – |
| O=C(CCN(C(=O)O)S(=O)(=O)c1ccc(NC(=O)c2ccccc2)cc1)NC1CCCCC1 | > 100 µM (inactive) | 21.6 µM (inactive) | > 100 µM (inactive) | > 100 µM (inactive) | > 100 µM (inactive) | > 100 µM (inactive) | > 100 µM (inactive) | > 100 µM (inactive) | 16.5 µM (inactive) | > 100 µM (inactive) | > 100 µM (inactive) | 12.6 µM (inactive) | > 100 µM (inactive) | > 100 µM (inactive) | – | – | – | – | – | – |
| O=C(CCC(=O)C1CCC/C1=N/O)Nc1ccc(Cl)cc1 (centres undefined) | > 100 µM (inactive) | > 100 µM (inactive) | > 100 µM (inactive) | > 100 µM (inactive) | > 100 µM (inactive) | > 100 µM (inactive) | > 100 µM (inactive) | – | > 100 µM (inactive) | > 100 µM (inactive) | > 100 µM (inactive) | > 100 µM (inactive) | > 100 µM (inactive) | 74.5 µM (inactive) | – | – | – | – | – | – |
| CN1Cc2c(nc(-c3ccccc3)c[n+]2[O-])N(C)C1 | > 100 µM (inactive) | > 100 µM (inactive) | > 100 µM (inactive) | > 100 µM (inactive) | > 100 µM (inactive) | > 100 µM (inactive) | > 100 µM (inactive) | > 100 µM (inactive) | > 100 µM (inactive) | > 100 µM (inactive) | > 100 µM (inactive) | > 100 µM (inactive) | > 100 µM (inactive) | > 100 µM (inactive) | – | – | – | – | – | – |
| C=C1C(=O)C23C(O)CC4C5(C)CCCC4(C(O)OC5)C2C(OC(C)=O)CC1C3O (centres undefined) | 6.03 µM (inactive) | 5 µM (inactive) | 1.58 µM (inactive) | 21.5 µM (inactive) | 16.7 µM (inactive) | 13.3 µM (inactive) | 19.4 µM (inactive) | 13.5 µM (inactive) | 3.64 µM (inactive) | 8.95 µM (inactive) | 19.5 µM (inactive) | 6.31 µM (inactive) | 18.2 µM (inactive) | 4.28 µM (inactive) | – | – | – | – | – | – |
| O=C1C(c2ccc([N+](=O)[O-])cc2)=C(Cl)C(=O)c2c(O)cccc21 | 25.5 µM (inactive) | 21 µM (inactive) | 7.87 µM (inactive) | > 54.1 µM (inactive) | 5.05 µM (inactive) | 23.1 µM (inactive) | 26.4 µM (inactive) | 17.3 µM (inactive) | 41.3 µM (inactive) | – | > 43.2 µM (inactive) | 15.5 µM (inactive) | 52.6 µM (inactive) | 35.3 µM (inactive) | 17.1 µM (inactive) | 20.7 µM (inactive) | 20.2 µM (inactive) | 26.8 µM (inactive) | 20.9 µM (inactive) | 26.1 µM (inactive) |
| CC(C)=CCCC(C)[C@H]1CC(O)C2(C)C3=CCC4C(C)(C)[C@@H](O)CC[C@]4(C)C3=CC[C@]12C (some centres undefined) | 7.13 µM (inactive) | 2.72 µM (inactive) | 0.401 µM (active) | 2.24 µM (inactive) | 13.7 µM (inactive) | 6.01 µM (inactive) | 9.29 µM (inactive) | 0.0902 µM (active) | 3.27 µM (inactive) | 6.58 µM (inactive) | 3.74 µM (inactive) | 1.55 µM (inactive) | – | 7.48 µM (inactive) | – | – | – | – | – | – |
